One test concerns human platelets. The test is described as follows: Increase in cyclic AMP in human platelets. Type of test: cell-based. The settings on record: for activation at 1 µM: Platelet, read-out: increase in the level of cyclic AMP.
For test [1], the system named is A2-adenosine receptors. Nature of the test: Competitive binding assay in bovine brain using 125I-PAPA-APEC (striatal membranes). How it is done: (§1) The filters were washed with three×3 ml aliquots of pH 7.2 buffer containing 50 mM HEPES, 10 mM Mg^+2, and 0.05% CHAPS. The filters were placed in polypropylene tubes and counted in a Packard gamma counter.
Test [2] has as its target T1, A2-adenosine receptors (Rattus norvegicus, UniProt P30543).
T1 construct: rat striatal membranes; from tissue; host or cells: rat striatal membranes
The test is described as follows: Inhibition of binding of [3H]CGS21680 to A2-adenosine receptors in rat striatal membranes. The settings on record: read-out: Ki, inhibition of binding of [3H]CGS21680 at A2-receptors. The method, then: Stock solutions of representative compounds of the present invention in the millimolar concentration range in dimethylsulfoxide were prepared for the binding assays. […] Protein was determined using the BCA (based on the complex with cuprous ions and bicinchoninic acid) protein assay reagents purchased from Pierce Chemical Co., Rockford, Ill.
The membrane suspension was then centrifuged at 37,000×g for 20 min at 4° C. The pellet was resuspended in buffer containing 2 IU/ml adenosine deaminase, Type VI from calf intestinal mucosa (Sigma, St. Louis, Mo.) to 20 mg/ml original tissue weight and incubated at 37° C. for 30 min. The membrane homogenate was recentrifuged as before, and the pellet was stored frozen at -70° C. until use.
For competitive binding assays using [^3 H]CGS21680, a volume of 1 ml was used in each 13×100 mm glass tube. […] The mixture was incubated with shaking for 90 min at 24° C. The samples were filtered on a Brandel Cell Harvester (Brandel, Gaithersburg, Md.) with Whatman GF/B filters, and washed rapidly twice with 5 ml of ice cold 50 mM Tris, pH 7.4. Each filter disc was added to 4 ml of scintillation fluid, vortexed, and counted after 6 hours.

The target in test [3] is T2, A2 adenosine receptors (Bos taurus, UniProt E1BKU0). Nature of the test: Competitive binding assay in bovine brain using 125I-PAPA-APEC (striatal membranes). Set-up: Bovine striatal membranes; from tissue; host or cells: bovine (calf) striatal membranes. The following applies: for Ki: bovine striatum, 11, 12 and 14: apparent Ki, read-out: Ki, inhibition of binding of 125I-PAPA-APEC at A2-receptors. The method, then:
as §1

The target of a further test is T3, A1-adenosine receptors (Rattus norvegicus, UniProt P25099).
T3 construct: rat cerebral cortex membranes; from tissue; host or cells: rat cerebral cortex membranes
T3 sequence (P25099 1-326): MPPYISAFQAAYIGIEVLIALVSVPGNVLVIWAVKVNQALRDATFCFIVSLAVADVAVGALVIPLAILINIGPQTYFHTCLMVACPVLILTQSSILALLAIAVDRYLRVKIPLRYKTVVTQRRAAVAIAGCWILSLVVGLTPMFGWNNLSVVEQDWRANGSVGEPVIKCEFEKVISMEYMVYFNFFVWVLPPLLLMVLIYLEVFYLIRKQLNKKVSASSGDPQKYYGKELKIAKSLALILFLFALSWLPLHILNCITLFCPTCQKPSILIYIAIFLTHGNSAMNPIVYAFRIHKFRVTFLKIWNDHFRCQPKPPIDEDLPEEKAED
The test is described as follows: Competitive binding assay at A1-adenosine receptors, rat cerebral cortex membranes ([3H]PIA or [3H]CHA). The following applies: rat; [3H]PIA; read-out: Ki, inhibition of binding of [3H]PIA at A1-receptors.

Another test has as its target T4, adenosine A2 receptors (Bos taurus, UniProt E1BKU0).
T4 construct: Striatal tissues obtained from bovine brain; tissue Pel-Freeze Biologicals, Rogers, Ark; host or cells: bovine striatal tissue
Nature of the test: FITC-APEC fluorescent binding (association and saturation) to bovine striatal membranes. From the text:
Compounds useful in fluorescent binding assays of adenosine A2 receptors in striatal membranes may be used to screen new ligands for affinity at these receptors, thus contributing to the development of new drugs specific or selective to this receptor. […] The following is an example.
Striatal tissues obtained from bovine brain (Pel-Freeze, Biologicals, Rogers, Ark.) were homogenized in 10 volumes of 0.32M sucrose using a Teflon pestle and glass tube (6-7 passes). The homogenate was centrifuged (4° C.) at 579×g (2,000 rpm) for 10 minutes 4° C.). The initial pellet (P1) was discarded and supernatant recentrifuged at 4° C. (16,000 rpm) for 1 hour. The resultant pellet (P2) was resuspended in ice-cold distilled water using a Brinkman Polytron (setting 6-7, for 3 seconds) and centrifuged (4° C.) at 37,059×g for 1 hour. The distilled water supernatant was decanted and the pellet was resuspended in buffer (50 mM TrisHCl, pH 7.4 at 4° C.) and centrifuged a final time for 1 hour. Tissue homogenates were […] at -80° C. for 1-3 days until binding assays were performed. Adenosine deaminase, (Boehringer Mannheim Biochemicals, Indianapolis, Ind.) from calf intestine was included (10 μ/mg protein, specific activity=200μ/mg) in the incubation media to eliminate endogenous adenosine. Protein quantities were assessed by using the Pierce BCA Protein Assay Reagent (Rockford, Ill.). Protein quantities were ~300μg/assay tube.
Fluorescence intensity (counts per second, cps) was measured using a SPEX Fluorolog Model 1680 0.22-m Double Spectrometer with DM3000 software (SPEX Industries, Edison, N.J.). Excitation and emission spectra were determined by comparing FITC-APEC (Compound 18, 1 μM) to buffer ([…] containing […], pH 7.4 or 8.1 at room temperature) or tissue suspension equivalent in concentration to that used for fluorescent ligand binding experiments. Excitation and emission maxima for FITC-APEC were 492 and 516 nm, respectively.
Association studies of FITC-APEC were performed by incubating (room temperature) striatal membranes in polypropylene tubes containing buffer (pH 7.4) and FITC-APEC (50 nM) for 5-120 minutes. […]
Quantitation (see McCabe et al. Faseb J., Vol. 4, pp 2934-2945, 1990) of FITC-APEC binding was performed by generating a standard line relating fluorescence intensity (cps) emitted to known concentrations (0.5-1024 nM) of FITC-APEC, in buffer ("free" ligand) or tissue suspension.
Bound ligand concentrations (μM) were estimated using linear regression analysis and mole quantities of FITC-APEC bound/mg protein were subsequently determined.

The target of test [4] is T2, A2 adenosine receptors. The test is described as follows: Displacement of 125I-APNEA from bovine striatum A2 adenosine receptors. Format: binding. Set-up: bovine striatum A2 adenosine receptors; from tissue; host or cells: bovine striatum. From the text:
FITC-APEC binding to bovine striatal membranes was saturable as illustrated by an isotherm representing bound ligand versus increasing concentrations of FITC-APEC (FIG. 1B).
(Loss of bound radioactivity is the signal in a displacement assay; it reports binding, not function.)

The test system of test [5] is locomotor activity in NIH mice. The test is described as follows: Locomotor depression by A2 adenosine agonists in mice (Digiscan activity monitor). Format: in vivo, mouse. The following applies: Mus musculus, ip, read-out: ED50, locomotor depression.
Test [6] concerns the target striatal A2-adenosine receptors. The settings on record: Barrington et al., 1989, cited from earlier work.
For test [7], the system named is striatal A2-adenosine receptors. The test is described as follows: Direct binding of 125I-PAPA-APEC to striatal A2-adenosine receptors in bovine brain. The settings on record: HPLC peak B.
Where [8] appears, read: bovine striatal membranes, fluorescence, 90 min, room temperature.

SMILES strings stand for the structures. Where two headings read alike, the source gives them in different places.

T2 sequence (E1BKU0 1-401): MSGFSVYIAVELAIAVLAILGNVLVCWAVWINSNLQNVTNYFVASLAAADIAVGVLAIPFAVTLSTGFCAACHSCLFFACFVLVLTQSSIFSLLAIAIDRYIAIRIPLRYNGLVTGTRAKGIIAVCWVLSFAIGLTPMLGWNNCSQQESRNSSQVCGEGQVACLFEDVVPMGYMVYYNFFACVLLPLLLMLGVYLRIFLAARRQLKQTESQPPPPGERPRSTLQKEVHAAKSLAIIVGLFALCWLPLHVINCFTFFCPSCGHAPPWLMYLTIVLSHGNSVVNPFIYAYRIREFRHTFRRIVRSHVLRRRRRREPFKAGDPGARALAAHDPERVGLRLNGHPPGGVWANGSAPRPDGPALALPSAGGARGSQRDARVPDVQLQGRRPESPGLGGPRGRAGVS
T4 sequence (E1BKU0 1-401): as above
T1 sequence (P30543 whole entry): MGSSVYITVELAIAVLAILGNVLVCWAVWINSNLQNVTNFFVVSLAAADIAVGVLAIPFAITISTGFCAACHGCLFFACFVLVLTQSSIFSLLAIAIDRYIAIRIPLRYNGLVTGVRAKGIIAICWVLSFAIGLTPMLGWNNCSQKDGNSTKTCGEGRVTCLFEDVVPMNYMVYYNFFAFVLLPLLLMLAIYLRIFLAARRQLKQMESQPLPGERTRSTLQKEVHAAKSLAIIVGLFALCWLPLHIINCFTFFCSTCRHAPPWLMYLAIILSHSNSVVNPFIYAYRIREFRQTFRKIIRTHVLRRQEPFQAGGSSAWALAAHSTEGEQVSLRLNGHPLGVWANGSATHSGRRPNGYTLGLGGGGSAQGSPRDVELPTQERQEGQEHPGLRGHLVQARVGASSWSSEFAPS

As for `CCNC(=O)[C@H]1O[C@@H](n2cnc3c(N)nc(NCCc4ccc(CCC(=O)NCCNC(=O)Cc5ccc(N)cc5)cc4)nc32)[C@H](O)[C@@H]1O` [Compound 6], in the test with human platelets (human platelets, 10^-6 M), the activation at 1 µM stood at 40%. Moreover, in the test with human platelets (human platelets, 1 nM to 10 μM), the “increase in cyclic AMP” value is on record as “dose dependent increase in cyclic AMP”. Besides, the “Ki (A1)/K1 (A2)” value in the test on A2-adenosine receptors [1] (ratio of Ki at A1-receptors (rat) versus Ki in the 125I-PAPA-APEC assay (bovine)) is 31. Further, the Ki is 28 ± 7 nM on A2-adenosine receptors [2], 43 ± 14 nM at A2 adenosine receptors [3] and 1340 nM on A1-adenosine receptors. The “potency in displacing 125I-PAPA-APEC binding” value at A2 adenosine receptors [3] (bovine brain A2, relative to compounds with Ki less than 10 nM) is recorded as “less potent”.

On to `CCNC(=O)[C@H]1O[C@@H](n2cnc3c(N)nc(NCCc4ccc(CCC(=O)NCCNC(=S)Nc5ccc(-c6c7ccc(=O)cc-7oc7cc(O)ccc67)c(C(=O)O)c5)cc4)nc32)[C@H](O)[C@@H]1O` [Compound 18], for which the “affinity at A2-adenosine receptors” value with A2-adenosine receptors [1] (fluorescent probes, derivatives in general) is “high affinity”. Also, the “saturability of binding” value on adenosine A2 receptors (bovine striatal membranes, 16-256 nM) is given as “saturable”. This compound also showed a Bmax at adenosine A2 receptors (setting [8]) of 2.26 pmol/mg protein. For the same compound, the Kd (as a rule, a measure of binding affinity in units of concentration) at adenosine A2 receptors (setting [8]) is 54.6 nM. Further, the “time to binding equilibrium” value on adenosine A2 receptors (bovine striatum, room temperature, FITC-APEC 50 nM) was no more than 90 min. The Ki on A2 adenosine receptors [3] and on A2 adenosine receptors [4] was 59.8 ± 28 nM each time.

As for `CCNC(=O)[C@H]1O[C@@H](n2cnc3c(N)ncnc32)[C@H](O)[C@@H]1O` [NECA, 5'-N-ethylcarboxamidoadenosine, reference compound], the activation at 1 µM in the test on human platelets (Homo sapiens) was determined as 35%. The ED50 (commonly the dose at which the effect has come halfway, by size or by number of responders) in test [5] worked out at 2 µg/kg.

In the case of `CCNC(=O)[C@H]1O[C@@H](n2cnc3c(N)nc(NCCc4ccc(CCC(=O)NCCNC(=O)Cc5ccc(N)c([125I])c5)cc4)nc32)[C@H](O)[C@@H]1O` [^125 I-PAPA-APEC], the Kd in test [6] (bovine brain striatum) is 1.4 nM. Further, in test [6] (striatal A2-adenosine receptors, bovine brain), the “degree of specific binding” value is 60-80%. In [7], the “specific binding and A2 receptor pharmacology” value was “display specific binding and the appropriate A2 receptor pharmacology”.

Values taken from patent US5280015A, “2-substituted adenosines and 2-substituted adenosine 5'-carboxamides” (priority 1990, dated 1994).
